Data: patent US8017786B2, “Substituted β-phenyl-α-hydroxy-propanoic acid, synthesis method and use thereof” (Northwest University, priority 2006, dated 2011)

Experiments:
[1] = test system: rats with acute myocardial ischemia; assay: Area of myocardial infarction in rats with acute myocardial ischemia (coronary artery ligation); type: in vivo, rat; details: 24 h after coronary artery ligation
Method: (§1) At 0.5 h after the rats of these groups were administered intragastrically, the standard II lead electrocardiogram (before modeling) was recorded, and the height of ST-T segment was measured. The rats of sham operation group were then subjected to coronary artery braid without ligation, and the rats of other groups were subjected to coronary artery ligation in accordance with the following method to establish cute myocardial ischemia models. The rats were subjected to etherization, fixed at supine position, and their normal electrocardiograms (before modeling) were recorded. The skin of left thorax was incised under aseptic conditions, the 4th intercostal muscles were isolated in blunt way, the heart was extruded by light pressure to the right thorax, the left anterior descending coronary artery was ligated at a position 2˜3 mm departing from the left coronary artery origin and between the pulmonary conus and the left auricle of heart, then the heart was sent back to thorax cavity immediately and sutured the incision. Penicillin was smeared topically for the prevention of infections. After operation, the electrocardiogram of postischemia was recorded immediately (at 0 min after modeling), and the height of ST-T segment was measured.

malondialdehyde (MDA) = assay: Serum MDA content in rats with myocardial ischemia; type: in vivo, rat; details: for MDA: serum, 24 h after ligation
Method: as §1

CC1(C)C2CCC1(C)C(OC(=O)C(O)Cc1ccc(O)c(O)c1)C2 (stereo not drawn) [bornyl salvianate ester, bornyl β-(3,4-dihydroxylphenyl)-α-hydroxylpropionate ester]
Infarct region weight ([1]; 10 mg/kg intragastric): 0.20 ± 0.05 g
Non-infarct region weight ([1]; 10 mg/kg intragastric): 0.47 ± 0.07 g
Percentage (infarct cardiac muscles of whole ventricle, by weight) ([1]; 10 mg/kg intragastric): 30.09 ± 5.69%
Ventricle weight ([1]; 10 mg/kg intragastric): 0.68 ± 0.09 g
Infarct region weight ([1]; 20 mg/kg intragastric): 0.18 ± 0.05 g
Non-infarct region weight ([1]; 20 mg/kg intragastric): 0.49 ± 0.09 g
Percentage (infarct cardiac muscles of whole ventricle, by weight) ([1]; 20 mg/kg intragastric): 25.73 ± 6.35 %
Ventricle weight ([1]; 20 mg/kg intragastric): 0.68 ± 0.08 g
Infarct region weight ([1]; 40 mg/kg intragastric): 0.18 ± 0.04 g
Non-infarct region weight ([1]; 40 mg/kg intragastric): 0.45 ± 0.06 g
Percentage (infarct cardiac muscles of whole ventricle, by weight) ([1]; 40 mg/kg intragastric): 28.95 ± 5.57 %
Ventricle weight ([1]; 40 mg/kg intragastric): 0.63 ± 0.07 g
MDA (malondialdehyde (MDA); 10 mg/kg intragastric): 21.69 ± 27.94 nmol/mL
MDA (malondialdehyde (MDA); 20 mg/kg intragastric): 10.60 ± 11.156 nmol/mL
MDA (malondialdehyde (MDA); 40 mg/kg intragastric): 9.43 ± 6.57 nmol/mL
serum MDA content (in words) (malondialdehyde (MDA); middle and large dose groups, no significant difference from model control): decrease tendency
